Data from the kinase profiling compilation of Christmann-Franck et al. (2016).
Values joined by “and” are separate entries in the source; they are usually repeats but may differ in a detail not shown here. Equal values may be shown once.

How the values were obtained:
Test in all cases: radiometric filter-binding kinase assay, Kinase HotSpot
Conditions in all cases: compound 0.5 µM; ATP 10 µM
ACVR1 (human) = ACVR1 (human) (UniProt Q04771)
ADRBK1 (human) = ADRBK1 (human) (UniProt P25098)
BTK (human) = BTK (human) (UniProt Q06187)
Chain of BTK (human) (Q06187 whole entry, looked up): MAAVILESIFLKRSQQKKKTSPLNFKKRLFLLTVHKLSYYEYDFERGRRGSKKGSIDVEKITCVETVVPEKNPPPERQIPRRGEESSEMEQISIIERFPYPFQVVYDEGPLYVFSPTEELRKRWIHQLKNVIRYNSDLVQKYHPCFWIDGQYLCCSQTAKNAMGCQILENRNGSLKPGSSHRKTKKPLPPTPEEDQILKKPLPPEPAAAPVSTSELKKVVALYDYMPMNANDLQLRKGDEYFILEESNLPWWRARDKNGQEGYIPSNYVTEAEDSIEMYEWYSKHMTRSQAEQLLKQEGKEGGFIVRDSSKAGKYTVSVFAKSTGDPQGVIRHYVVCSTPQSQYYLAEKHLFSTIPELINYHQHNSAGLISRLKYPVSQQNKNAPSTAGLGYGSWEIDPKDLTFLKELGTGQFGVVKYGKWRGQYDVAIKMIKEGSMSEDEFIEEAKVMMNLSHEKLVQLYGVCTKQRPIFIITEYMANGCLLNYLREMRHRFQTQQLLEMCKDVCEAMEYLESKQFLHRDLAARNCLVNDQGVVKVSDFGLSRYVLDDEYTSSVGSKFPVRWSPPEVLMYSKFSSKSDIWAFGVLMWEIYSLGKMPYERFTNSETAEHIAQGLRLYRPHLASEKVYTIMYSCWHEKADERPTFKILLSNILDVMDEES

CAMKK1 (human) = CAMKK1 (human) (UniProt Q8N5S9)
CDC42BPB (human) = CDC42BPB (human) (UniProt Q9Y5S2)
Chain of CDC42BPB (human) (Q9Y5S2 whole entry, looked up): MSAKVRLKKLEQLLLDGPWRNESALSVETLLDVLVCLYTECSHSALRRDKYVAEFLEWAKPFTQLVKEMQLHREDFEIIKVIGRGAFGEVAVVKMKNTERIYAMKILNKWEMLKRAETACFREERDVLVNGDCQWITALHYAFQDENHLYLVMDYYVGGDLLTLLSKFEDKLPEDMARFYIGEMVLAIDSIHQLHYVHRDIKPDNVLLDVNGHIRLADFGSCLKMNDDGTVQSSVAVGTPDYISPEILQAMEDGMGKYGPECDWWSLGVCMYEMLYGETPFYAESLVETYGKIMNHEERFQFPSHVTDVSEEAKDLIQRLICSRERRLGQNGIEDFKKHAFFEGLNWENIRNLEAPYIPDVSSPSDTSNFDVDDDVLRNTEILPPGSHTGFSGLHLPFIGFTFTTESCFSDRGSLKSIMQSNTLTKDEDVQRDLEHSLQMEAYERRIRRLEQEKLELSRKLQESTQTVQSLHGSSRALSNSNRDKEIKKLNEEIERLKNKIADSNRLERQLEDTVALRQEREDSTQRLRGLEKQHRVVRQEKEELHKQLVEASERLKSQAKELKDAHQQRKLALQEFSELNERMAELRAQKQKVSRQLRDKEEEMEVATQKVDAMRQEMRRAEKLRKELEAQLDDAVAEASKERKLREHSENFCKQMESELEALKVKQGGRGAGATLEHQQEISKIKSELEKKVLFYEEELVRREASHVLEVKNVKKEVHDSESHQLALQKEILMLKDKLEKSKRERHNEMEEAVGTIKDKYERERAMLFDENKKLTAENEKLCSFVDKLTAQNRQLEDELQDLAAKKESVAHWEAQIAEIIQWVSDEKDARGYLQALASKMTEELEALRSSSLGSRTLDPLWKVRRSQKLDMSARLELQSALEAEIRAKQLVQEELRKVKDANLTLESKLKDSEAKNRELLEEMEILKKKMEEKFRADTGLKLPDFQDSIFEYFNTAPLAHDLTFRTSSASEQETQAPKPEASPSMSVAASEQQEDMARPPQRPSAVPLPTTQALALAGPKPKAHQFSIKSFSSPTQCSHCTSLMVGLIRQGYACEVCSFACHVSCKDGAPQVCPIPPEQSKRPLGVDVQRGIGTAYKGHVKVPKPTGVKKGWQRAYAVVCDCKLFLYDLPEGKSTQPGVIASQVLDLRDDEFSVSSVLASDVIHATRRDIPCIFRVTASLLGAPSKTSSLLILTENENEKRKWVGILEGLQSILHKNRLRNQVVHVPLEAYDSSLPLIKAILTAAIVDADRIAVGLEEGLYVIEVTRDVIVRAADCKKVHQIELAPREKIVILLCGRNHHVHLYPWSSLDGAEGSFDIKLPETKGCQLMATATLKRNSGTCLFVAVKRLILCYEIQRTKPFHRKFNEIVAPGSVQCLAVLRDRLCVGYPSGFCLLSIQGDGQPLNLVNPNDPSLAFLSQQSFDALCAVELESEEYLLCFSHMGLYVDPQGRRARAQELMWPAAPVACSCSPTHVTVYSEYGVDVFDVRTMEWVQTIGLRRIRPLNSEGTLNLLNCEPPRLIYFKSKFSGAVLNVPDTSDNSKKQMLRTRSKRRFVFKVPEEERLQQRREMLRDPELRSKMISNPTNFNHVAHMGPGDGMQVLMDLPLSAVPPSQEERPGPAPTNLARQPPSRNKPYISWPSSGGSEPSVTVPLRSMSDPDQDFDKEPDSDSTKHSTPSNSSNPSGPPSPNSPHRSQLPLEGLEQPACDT

CDK4 CCND3 (human) = CDK4 CCND3 (human) (UniProt P30281+P11802)
CLK1 (human) = CLK1 (human) (UniProt P49759)
CSNK1G1 (human) = CSNK1G1 (human) (UniProt Q9HCP0)
DDR2 (human) = DDR2 (human) (UniProt Q16832)
DMPK (human) = DMPK (human) (UniProt Q09013)
Chain of DMPK (human) (Q09013 whole entry, looked up): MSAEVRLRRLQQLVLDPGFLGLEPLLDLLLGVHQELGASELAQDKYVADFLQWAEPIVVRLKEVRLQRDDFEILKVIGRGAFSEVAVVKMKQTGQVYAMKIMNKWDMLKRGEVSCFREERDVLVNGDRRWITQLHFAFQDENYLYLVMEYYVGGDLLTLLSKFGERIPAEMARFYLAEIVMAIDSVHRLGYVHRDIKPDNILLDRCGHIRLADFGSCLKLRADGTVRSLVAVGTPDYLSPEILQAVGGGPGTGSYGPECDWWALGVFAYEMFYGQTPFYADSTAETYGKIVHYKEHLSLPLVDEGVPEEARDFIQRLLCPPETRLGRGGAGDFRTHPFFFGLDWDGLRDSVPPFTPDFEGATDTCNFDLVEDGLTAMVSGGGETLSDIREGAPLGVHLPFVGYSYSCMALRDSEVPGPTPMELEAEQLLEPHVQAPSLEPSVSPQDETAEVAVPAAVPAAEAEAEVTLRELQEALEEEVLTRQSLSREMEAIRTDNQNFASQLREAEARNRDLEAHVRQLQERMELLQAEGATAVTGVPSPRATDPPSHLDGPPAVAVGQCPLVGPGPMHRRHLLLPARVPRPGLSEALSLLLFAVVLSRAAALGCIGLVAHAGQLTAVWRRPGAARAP

DYRK2 (human) = DYRK2 (human) (UniProt Q92630)
ERBB4 (human) = ERBB4 (human) (UniProt Q15303)
FGFR2 (human) = FGFR2 (human) (UniProt P21802)
GRK4 (human) = GRK4 (human) (UniProt P32298)
HIPK1 (human) = HIPK1 (human) (UniProt Q86Z02)
ITK (human) = ITK (human) (UniProt Q08881)
LIMK1 (human) = LIMK1 (human) (UniProt P53667)
LYN (human) = LYN (human) (UniProt P07948)
MAP3K7 TAB1 (human) = MAP3K7 TAB1 (human) (UniProt O43318+Q15750)
MAPK10 (human) = MAPK10 (human) (UniProt P53779)
MAPK9 (human) = MAPK9 (human) (UniProt P45984)
MYLK2 (human) = MYLK2 (human) (UniProt Q9H1R3)
NEK4 (human) = NEK4 (human) (UniProt P51957)
NEK6 (human) = NEK6 (human) (UniProt Q9HC98)
NEK9 (human) = NEK9 (human) (UniProt Q8TD19)
NUAK2 (human) = NUAK2 (human) (UniProt Q9H093)
PBK (human) = PBK (human) (UniProt Q96KB5)
PHKG2 (human) = PHKG2 (human) (UniProt P15735)
Chain of PHKG2 (human) (P15735 whole entry, looked up): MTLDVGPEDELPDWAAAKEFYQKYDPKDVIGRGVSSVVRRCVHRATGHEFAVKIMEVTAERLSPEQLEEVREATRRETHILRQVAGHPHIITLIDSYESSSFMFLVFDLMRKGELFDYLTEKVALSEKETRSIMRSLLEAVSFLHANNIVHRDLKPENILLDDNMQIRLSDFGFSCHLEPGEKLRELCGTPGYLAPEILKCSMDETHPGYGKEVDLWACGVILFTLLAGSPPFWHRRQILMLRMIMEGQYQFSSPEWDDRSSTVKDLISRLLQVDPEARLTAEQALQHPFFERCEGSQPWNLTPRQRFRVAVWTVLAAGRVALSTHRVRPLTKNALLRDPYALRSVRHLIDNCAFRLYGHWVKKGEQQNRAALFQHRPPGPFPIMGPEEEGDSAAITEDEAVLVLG

PLK1 (human) = PLK1 (human) (UniProt P53350)
PLK3 (human) = PLK3 (human) (UniProt Q9H4B4)
PRKCB2 (human) = PRKCB2 (human) (UniProt P05771)
PRKCI (human) = PRKCI (human) (UniProt P41743)
PRKD3 (human) = PRKD3 (human) (UniProt O94806)
Chain of PRKD3 (human) (O94806 whole entry, looked up): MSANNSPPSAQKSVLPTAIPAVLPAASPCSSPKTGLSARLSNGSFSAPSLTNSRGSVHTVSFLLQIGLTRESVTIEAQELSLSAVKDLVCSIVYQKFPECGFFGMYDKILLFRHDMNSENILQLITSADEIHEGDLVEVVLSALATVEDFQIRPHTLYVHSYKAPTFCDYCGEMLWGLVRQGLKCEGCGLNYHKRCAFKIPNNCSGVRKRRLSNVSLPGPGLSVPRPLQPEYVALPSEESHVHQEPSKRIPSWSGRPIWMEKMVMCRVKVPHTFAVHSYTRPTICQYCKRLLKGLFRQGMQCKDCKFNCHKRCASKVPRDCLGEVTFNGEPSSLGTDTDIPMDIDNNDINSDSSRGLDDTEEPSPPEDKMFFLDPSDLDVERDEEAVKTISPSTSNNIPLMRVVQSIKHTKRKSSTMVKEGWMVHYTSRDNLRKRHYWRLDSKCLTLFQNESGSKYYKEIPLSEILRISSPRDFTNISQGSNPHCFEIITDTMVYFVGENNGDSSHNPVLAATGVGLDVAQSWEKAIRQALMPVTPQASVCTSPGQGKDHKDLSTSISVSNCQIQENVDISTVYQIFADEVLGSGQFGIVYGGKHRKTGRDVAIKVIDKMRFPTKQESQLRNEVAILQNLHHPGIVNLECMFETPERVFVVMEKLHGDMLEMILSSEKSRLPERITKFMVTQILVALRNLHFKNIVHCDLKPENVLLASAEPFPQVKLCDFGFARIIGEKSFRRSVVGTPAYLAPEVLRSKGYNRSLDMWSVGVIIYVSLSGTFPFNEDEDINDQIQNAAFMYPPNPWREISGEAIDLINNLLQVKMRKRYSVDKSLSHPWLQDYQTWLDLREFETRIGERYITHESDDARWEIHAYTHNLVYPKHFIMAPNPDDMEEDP

PRKG2 (human) = PRKG2 (human) (UniProt Q13237)
PTK2 (human) = PTK2 (human) (UniProt Q05397)
RPS6KA1 KD1 KD2 (human) = RPS6KA1 KD1 KD2 (human) (UniProt Q15418)
Chain of RPS6KA1 KD1 KD2 (human) (Q15418 whole entry, looked up): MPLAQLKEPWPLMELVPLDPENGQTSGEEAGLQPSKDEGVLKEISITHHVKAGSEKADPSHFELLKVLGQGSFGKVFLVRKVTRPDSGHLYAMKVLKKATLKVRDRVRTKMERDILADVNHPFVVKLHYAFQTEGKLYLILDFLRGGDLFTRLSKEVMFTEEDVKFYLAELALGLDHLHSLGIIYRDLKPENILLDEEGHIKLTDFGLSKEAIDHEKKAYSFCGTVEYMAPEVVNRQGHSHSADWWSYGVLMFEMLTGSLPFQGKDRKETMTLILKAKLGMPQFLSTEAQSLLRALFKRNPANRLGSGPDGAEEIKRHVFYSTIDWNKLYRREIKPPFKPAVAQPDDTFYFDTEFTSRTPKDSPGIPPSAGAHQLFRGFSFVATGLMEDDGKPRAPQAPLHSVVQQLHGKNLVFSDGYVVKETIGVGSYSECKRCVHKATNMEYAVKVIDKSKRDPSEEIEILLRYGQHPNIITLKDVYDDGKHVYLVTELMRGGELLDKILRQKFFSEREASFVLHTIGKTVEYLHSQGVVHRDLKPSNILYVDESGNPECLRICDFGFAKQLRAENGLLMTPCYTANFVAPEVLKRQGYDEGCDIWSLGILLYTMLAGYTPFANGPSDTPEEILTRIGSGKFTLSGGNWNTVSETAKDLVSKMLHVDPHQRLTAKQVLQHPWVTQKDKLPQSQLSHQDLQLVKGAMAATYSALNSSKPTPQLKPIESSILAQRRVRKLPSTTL

RPS6KA3 KD1 KD2 (human) = RPS6KA3 KD1 KD2 (human) (UniProt P51812)
SGK3 (human) = SGK3 (human) (UniProt Q96BR1)
SRMS (human) = SRMS (human) (UniProt Q9H3Y6)
STK3 (human) = STK3 (human) (UniProt Q13188)
SYK (human) = SYK (human) (UniProt P43405)
TAOK2 (human) = TAOK2 (human) (UniProt Q9UL54)

## COc1cccc(-c2cc(=O)c3ccccc3o2)c1N
ACVR1 (human)
  residual activity: 92.7%
ADRBK1 (human)
  residual activity: 99.6%
BTK (human)
  residual activity: 83.7%
CAMKK1 (human)
  residual activity: 98.8%
CDC42BPB (human)
  residual activity: 94.8%
CDK4 CCND3 (human)
  residual activity: 101%
CLK1 (human)
  residual activity: 97.7%
CSNK1G1 (human)
  residual activity: 83.5%
DDR2 (human)
  residual activity: 92%
DMPK (human)
  residual activity: 97.1%
DYRK2 (human)
  residual activity: 92.5%
ERBB4 (human)
  residual activity: 94.7%
FGFR2 (human)
  residual activity: 97.8%
GRK4 (human)
  residual activity: 104%
HIPK1 (human)
  residual activity: 104%
ITK (human)
  residual activity: 96.5%
LIMK1 (human)
  residual activity: 96.1%
LYN (human)
  residual activity: 94.6% and 98.7%
MAP3K7 TAB1 (human)
  residual activity: 98.7%
MAPK10 (human)
  residual activity: 85.7%
MAPK9 (human)
  residual activity: 89.8%
MYLK2 (human)
  residual activity: 101%
NEK4 (human)
  residual activity: 93.4%
NEK6 (human)
  residual activity: 102%
NEK9 (human)
  residual activity: 102%
NUAK2 (human)
  residual activity: 82.9%
PBK (human)
  residual activity: 97.6%
PHKG2 (human)
  residual activity: 117%
PLK1 (human)
  residual activity: 88.2%
PLK3 (human)
  residual activity: 98%
PRKCB2 (human)
  residual activity: 102%
PRKCI (human)
  residual activity: 97.3%
PRKD3 (human)
  residual activity: 94.3%
PRKG2 (human)
  residual activity: 101%
PTK2 (human)
  residual activity: 98.2%
RPS6KA1 KD1 KD2 (human)
  residual activity: 92.7%
RPS6KA3 KD1 KD2 (human)
  residual activity: 93.6%
SGK3 (human)
  residual activity: 101%
SRMS (human)
  residual activity: 104%
STK3 (human)
  residual activity: 97.1%
SYK (human)
  residual activity: 97.2%
TAOK2 (human)
  residual activity: 96%

## COc1cc2ncnc(Nc3ccc(O)c(Br)c3)c2cc1OC
ACVR1 (human)
  residual activity: 128%
ADRBK1 (human)
  residual activity: 99%
BTK (human)
  residual activity: 85.5%
CAMKK1 (human)
  residual activity: 95.8%
CDC42BPB (human)
  residual activity: 98%
CDK4 CCND3 (human)
  residual activity: 110%
CLK1 (human)
  residual activity: 77.2%
CSNK1G1 (human)
  residual activity: 92.4%
DDR2 (human)
  residual activity: 119%
DMPK (human)
  residual activity: 101%
DYRK2 (human)
  residual activity: 60%
ERBB4 (human)
  residual activity: 29.1%
FGFR2 (human)
  residual activity: 95.9%
GRK4 (human)
  residual activity: 105%
HIPK1 (human)
  residual activity: 104%
ITK (human)
  residual activity: 92.8%
LIMK1 (human)
  residual activity: 85.1%
LYN (human)
  residual activity: 40.3% and 60%
MAP3K7 TAB1 (human)
  residual activity: 100%
MAPK10 (human)
  residual activity: 89%
MAPK9 (human)
  residual activity: 88.4%
MYLK2 (human)
  residual activity: 87.3%
NEK4 (human)
  residual activity: 93.1%
NEK6 (human)
  residual activity: 100%
NEK9 (human)
  residual activity: 104%
NUAK2 (human)
  residual activity: 88.3%
PBK (human)
  residual activity: 101%
PHKG2 (human)
  residual activity: 98%
PLK1 (human)
  residual activity: 98.8%
PLK3 (human)
  residual activity: 95.2%
PRKCB2 (human)
  residual activity: 98.7%
PRKCI (human)
  residual activity: 94%
PRKD3 (human)
  residual activity: 72.8%
PRKG2 (human)
  residual activity: 84.1%
PTK2 (human)
  residual activity: 99.5%
RPS6KA1 KD1 KD2 (human)
  residual activity: 78.2%
RPS6KA3 KD1 KD2 (human)
  residual activity: 69.4%
SGK3 (human)
  residual activity: 94.5%
SRMS (human)
  residual activity: 90.4%
STK3 (human)
  residual activity: 89.6%
SYK (human)
  residual activity: 86.7%
TAOK2 (human)
  residual activity: 95.8%

## COc1cc2c(cc1OC)-c1[nH]nc(Nc3cccc(F)c3)c1C2
ACVR1 (human)
  residual activity: 107%
ADRBK1 (human)
  residual activity: 93%
BTK (human)
  residual activity: 40.8%
CAMKK1 (human)
  residual activity: 81.5%
CDC42BPB (human)
  residual activity: 99.2%
CDK4 CCND3 (human)
  residual activity: 95.4%
CLK1 (human)
  residual activity: 102%
CSNK1G1 (human)
  residual activity: 77.8%
DDR2 (human)
  residual activity: 110%
DMPK (human)
  residual activity: 109%
DYRK2 (human)
  residual activity: 95.3%
ERBB4 (human)
  residual activity: 96.5%
FGFR2 (human)
  residual activity: 100%
GRK4 (human)
  residual activity: 97.1%
HIPK1 (human)
  residual activity: 96.4%
ITK (human)
  residual activity: 85.5%
LIMK1 (human)
  residual activity: 23.3%
LYN (human)
  residual activity: 60.2% and 77.5%
MAP3K7 TAB1 (human)
  residual activity: 94%
MAPK10 (human)
  residual activity: 102%
MAPK9 (human)
  residual activity: 75.9%
MYLK2 (human)
  residual activity: 86.4%
NEK4 (human)
  residual activity: 101%
NEK6 (human)
  residual activity: 105%
NEK9 (human)
  residual activity: 102%
NUAK2 (human)
  residual activity: 94.6%
PBK (human)
  residual activity: 86.8%
PHKG2 (human)
  residual activity: 121%
PLK1 (human)
  residual activity: 102%
PLK3 (human)
  residual activity: 94.9%
PRKCB2 (human)
  residual activity: 103%
PRKCI (human)
  residual activity: 95.5%
PRKD3 (human)
  residual activity: 93.1%
PRKG2 (human)
  residual activity: 92.5%
PTK2 (human)
  residual activity: 88.2%
RPS6KA1 KD1 KD2 (human)
  residual activity: 84.1%
RPS6KA3 KD1 KD2 (human)
  residual activity: 94.7%
SGK3 (human)
  residual activity: 92.7%
SRMS (human)
  residual activity: 99.9%
STK3 (human)
  residual activity: 93%
SYK (human)
  residual activity: 103%
TAOK2 (human)
  residual activity: 97.1%

## O=C1NC(=O)c2c1c1c3ccccc3[nH]c1c1[nH]c3cc(Br)ccc3c21
ACVR1 (human)
  residual activity: 127%
ADRBK1 (human)
  residual activity: 97.6%
BTK (human)
  residual activity: 74.8%
CAMKK1 (human)
  residual activity: 99.1%
CDC42BPB (human)
  residual activity: 84.1%
CDK4 CCND3 (human)
  residual activity: 21.1%
CLK1 (human)
  residual activity: 97%
CSNK1G1 (human)
  residual activity: 96.2%
DDR2 (human)
  residual activity: 91.8%
DMPK (human)
  residual activity: 104%
DYRK2 (human)
  residual activity: 70.5%
ERBB4 (human)
  residual activity: 101%
FGFR2 (human)
  residual activity: 98.4%
GRK4 (human)
  residual activity: 99.8%
HIPK1 (human)
  residual activity: 98.2%
ITK (human)
  residual activity: 84.1%
LIMK1 (human)
  residual activity: 83.5%
LYN (human)
  residual activity: 92.1% and 93.2%
MAP3K7 TAB1 (human)
  residual activity: 91.4%
MAPK10 (human)
  residual activity: 105%
MAPK9 (human)
  residual activity: 99.6%
MYLK2 (human)
  residual activity: 43.3%
NEK4 (human)
  residual activity: 89%
NEK6 (human)
  residual activity: 104%
NEK9 (human)
  residual activity: 83.6%
NUAK2 (human)
  residual activity: 84.5%
PBK (human)
  residual activity: 86.3%
PHKG2 (human)
  residual activity: 94.8%
PLK1 (human)
  residual activity: 91.2%
PLK3 (human)
  residual activity: 93.3%
PRKCB2 (human)
  residual activity: 72.8%
PRKCI (human)
  residual activity: 96.2%
PRKD3 (human)
  residual activity: 49.5%
PRKG2 (human)
  residual activity: 29.7%
PTK2 (human)
  residual activity: 91.8%
RPS6KA1 KD1 KD2 (human)
  residual activity: 58.4%
RPS6KA3 KD1 KD2 (human)
  residual activity: 46.3%
SGK3 (human)
  residual activity: 97.2%
SRMS (human)
  residual activity: 91.5%
STK3 (human)
  residual activity: 55.8%
SYK (human)
  residual activity: 58.3%
TAOK2 (human)
  residual activity: 94.1%
